Measurements: ChEMBL document CHEMBL2203152, “Systematic in vivo screening of a series of 1-propyl-4-arylpiperidines against dopaminergic and serotonergic properties in rat brain: a scaffold-jumping approach” (J Med Chem, 2012)
pIC50, pKi: −log10 of the molar value. Calls of active or inactive are those of the source. The calls are words filed in the database; no cut-off is given here.

What was measured:
Rattus norvegicus [1] = assay: Reduction in spontaneous locomotor activity in Sprague-Dawley rat at 33 umol/kg, sc measured after 15 to 60 mins relative to saline-treated control; type: functional; parameters: scale not given: the % may be the effect or the level left
Rattus norvegicus [2] = assay: Decrease in 5-HIAA level in Sprague-Dawley rat striatum at 33 umol/kg, sc by HPLC analysis relative to saline-treated control; type: functional; parameters: scale not given: the % may be the effect or the level left
Rattus norvegicus [3] = assay: Increase in DOPAC level in Sprague-Dawley rat striatum at 33 umol/kg, sc by HPLC analysis relative to saline-treated control; type: functional
Rattus norvegicus [4] = assay: Increase in DOPAC level in sc dosed Sprague-Dawley rat striatum by HPLC analysis; type: functional
[5] = molecular target: T1, Amine oxidase [flavin-containing] A (Rattus norvegicus, UniProt P21396); assay: Displacement of [3H]Ro 41-1049 from MAO-A in rat cerebral cortex by competition binding assay; type: tissue-based; conditions: for pKi: read-out: Ki(app)
T1 sequence (P21396 whole entry): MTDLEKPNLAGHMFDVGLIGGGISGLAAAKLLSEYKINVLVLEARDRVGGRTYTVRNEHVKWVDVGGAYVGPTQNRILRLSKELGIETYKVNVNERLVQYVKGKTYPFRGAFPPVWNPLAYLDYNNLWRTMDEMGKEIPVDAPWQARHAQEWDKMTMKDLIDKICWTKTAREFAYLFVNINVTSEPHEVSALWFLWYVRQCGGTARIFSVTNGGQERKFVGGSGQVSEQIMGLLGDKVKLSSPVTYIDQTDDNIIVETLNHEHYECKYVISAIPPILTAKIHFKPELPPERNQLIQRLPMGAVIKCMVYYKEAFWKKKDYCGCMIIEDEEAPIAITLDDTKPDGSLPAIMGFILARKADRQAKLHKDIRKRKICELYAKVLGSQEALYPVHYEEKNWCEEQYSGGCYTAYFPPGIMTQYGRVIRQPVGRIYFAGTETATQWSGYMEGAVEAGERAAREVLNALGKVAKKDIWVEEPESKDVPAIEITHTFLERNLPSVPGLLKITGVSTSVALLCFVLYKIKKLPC

Homo sapiens = species: Homo sapiens; assay: Selectivity ratio of Ki(app) for human low affinity Dopamine D2S receptor to Ki(app) for human high affinity Dopamine D2S receptor
[6] = molecular target: Sodium-dependent serotonin transporter (Homo sapiens, UniProt P31645); assay: Displacement of [3H]imipramine from human SERT expressed in CHO cells by competition binding assay; type: cell-based; conditions: read-out: Ki(app)
Sodium-dependent serotonin transporter, sequence (P31645 whole entry): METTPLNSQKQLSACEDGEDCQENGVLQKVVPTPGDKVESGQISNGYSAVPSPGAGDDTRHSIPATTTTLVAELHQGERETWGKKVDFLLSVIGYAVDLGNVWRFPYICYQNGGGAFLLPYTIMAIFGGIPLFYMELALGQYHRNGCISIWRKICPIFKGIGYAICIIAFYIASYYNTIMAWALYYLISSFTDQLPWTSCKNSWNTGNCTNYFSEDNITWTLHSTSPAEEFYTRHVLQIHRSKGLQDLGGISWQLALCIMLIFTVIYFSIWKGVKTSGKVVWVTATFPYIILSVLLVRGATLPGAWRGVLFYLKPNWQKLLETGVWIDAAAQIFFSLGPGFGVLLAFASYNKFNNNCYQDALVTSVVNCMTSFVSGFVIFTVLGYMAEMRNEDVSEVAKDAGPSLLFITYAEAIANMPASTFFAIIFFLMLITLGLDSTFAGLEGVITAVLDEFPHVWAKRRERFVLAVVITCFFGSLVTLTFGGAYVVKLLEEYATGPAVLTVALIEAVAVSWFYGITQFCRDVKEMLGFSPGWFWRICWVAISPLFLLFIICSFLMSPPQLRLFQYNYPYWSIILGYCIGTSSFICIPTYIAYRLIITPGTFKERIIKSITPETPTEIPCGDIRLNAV

D(2) dopamine receptor [7] = molecular target: T2, D(2) dopamine receptor (Homo sapiens, UniProt P14416); assay: Displacement of [3H]7-OH-DPAT from human high affinity Dopamine D2S receptor by competition binding assay
T2 sequence (P14416 whole entry): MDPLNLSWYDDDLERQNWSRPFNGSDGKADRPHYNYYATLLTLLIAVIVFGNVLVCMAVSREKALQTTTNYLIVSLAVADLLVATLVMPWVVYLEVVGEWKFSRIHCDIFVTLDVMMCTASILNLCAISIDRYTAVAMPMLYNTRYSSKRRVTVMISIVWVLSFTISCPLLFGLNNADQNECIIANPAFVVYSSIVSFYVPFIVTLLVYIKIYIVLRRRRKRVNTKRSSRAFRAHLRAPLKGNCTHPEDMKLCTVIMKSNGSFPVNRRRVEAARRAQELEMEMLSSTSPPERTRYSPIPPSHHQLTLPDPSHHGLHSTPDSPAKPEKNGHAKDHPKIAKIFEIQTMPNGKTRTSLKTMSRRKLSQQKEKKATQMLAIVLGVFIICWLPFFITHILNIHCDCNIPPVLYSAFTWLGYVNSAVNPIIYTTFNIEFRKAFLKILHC

D(2) dopamine receptor [8] = molecular target: T2, D(2) dopamine receptor; assay: Displacement of [3H]methylspiperone from human low affinity Dopamine D2S receptor by competition binding assay
Rattus norvegicus [9] = assay: Reduction in spontaneous locomotor activity in Sprague-Dawley rat at 100 umol/kg, sc measured after 15 to 60 mins relative to saline-treated control; type: functional; parameters: scale not given: the % may be the effect or the level left
Rattus norvegicus [10] = assay: Decrease in 5-HIAA level in Sprague-Dawley rat striatum at 100 umol/kg, sc by HPLC analysis relative to saline-treated control; type: functional; parameters: scale not given: the % may be the effect or the level left
Rattus norvegicus [11] = assay: Increase in DOPAC level in Sprague-Dawley rat striatum at 100 umol/kg, sc by HPLC analysis relative to saline-treated control; type: functional
[12] = molecular target: 5-hydroxytryptamine receptor 2A (Homo sapiens, UniProt P28223); assay: Displacement of [3H]ketanserin from human 5-HT2A at 1 uM by CEREP assay
5-hydroxytryptamine receptor 2A, sequence (P28223 whole entry): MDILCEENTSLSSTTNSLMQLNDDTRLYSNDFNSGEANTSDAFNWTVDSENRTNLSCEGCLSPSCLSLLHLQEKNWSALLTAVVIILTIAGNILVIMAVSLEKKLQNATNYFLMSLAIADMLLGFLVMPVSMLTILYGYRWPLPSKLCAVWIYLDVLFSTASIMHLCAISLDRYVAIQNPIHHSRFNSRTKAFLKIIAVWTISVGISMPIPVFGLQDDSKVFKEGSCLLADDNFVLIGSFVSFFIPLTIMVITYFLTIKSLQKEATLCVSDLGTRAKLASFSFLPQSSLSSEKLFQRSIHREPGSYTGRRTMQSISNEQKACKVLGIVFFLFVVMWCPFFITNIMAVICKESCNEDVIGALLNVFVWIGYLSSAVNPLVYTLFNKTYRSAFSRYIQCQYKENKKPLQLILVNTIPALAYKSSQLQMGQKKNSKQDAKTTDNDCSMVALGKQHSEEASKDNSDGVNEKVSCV

[13] = molecular target: T3, Alpha-2A adrenergic receptor (Homo sapiens) (UniProt P08913); assay: Displacement of [3H]UK 14.304 from human adrenergic alpha2A receptor at 1 uM
T3 sequence (whole entry): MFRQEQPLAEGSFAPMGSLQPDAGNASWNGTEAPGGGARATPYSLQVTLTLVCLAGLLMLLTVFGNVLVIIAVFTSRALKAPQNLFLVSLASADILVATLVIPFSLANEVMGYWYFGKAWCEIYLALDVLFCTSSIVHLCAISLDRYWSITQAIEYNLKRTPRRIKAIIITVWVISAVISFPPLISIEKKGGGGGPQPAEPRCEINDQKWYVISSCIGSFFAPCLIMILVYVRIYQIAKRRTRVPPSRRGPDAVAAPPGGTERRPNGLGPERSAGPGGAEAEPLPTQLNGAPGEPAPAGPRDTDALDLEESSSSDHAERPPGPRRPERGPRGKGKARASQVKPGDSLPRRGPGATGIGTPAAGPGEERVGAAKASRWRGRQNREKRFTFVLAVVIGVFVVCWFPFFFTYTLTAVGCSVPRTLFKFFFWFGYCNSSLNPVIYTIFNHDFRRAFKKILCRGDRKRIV

[14] = molecular target: T4, 5-hydroxytryptamine receptor 1A (Homo sapiens) (UniProt P08908); assay: Displacement of [3H]8- OH-DPAT from human 5-HT1A at 1 uM by CEREP assay
T4 sequence (whole entry): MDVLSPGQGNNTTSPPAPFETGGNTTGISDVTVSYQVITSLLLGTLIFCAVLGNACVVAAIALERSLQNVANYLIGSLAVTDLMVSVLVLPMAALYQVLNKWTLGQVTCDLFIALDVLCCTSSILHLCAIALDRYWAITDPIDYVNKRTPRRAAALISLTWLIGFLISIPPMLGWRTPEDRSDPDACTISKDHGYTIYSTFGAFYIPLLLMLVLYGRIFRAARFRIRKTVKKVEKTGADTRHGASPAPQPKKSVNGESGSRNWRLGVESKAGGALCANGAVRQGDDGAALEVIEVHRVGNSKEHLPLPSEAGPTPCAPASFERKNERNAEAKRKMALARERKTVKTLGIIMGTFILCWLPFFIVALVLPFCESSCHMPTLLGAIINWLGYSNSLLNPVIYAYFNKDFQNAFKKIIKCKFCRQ

[15] = molecular target: Sodium-dependent dopamine transporter (Homo sapiens) (UniProt Q01959); assay: Displacement of [3H]BTCP from human DAT at 1 uM by CEREP assay
Sodium-dependent dopamine transporter (Homo sapiens), sequence (Q01959 whole entry): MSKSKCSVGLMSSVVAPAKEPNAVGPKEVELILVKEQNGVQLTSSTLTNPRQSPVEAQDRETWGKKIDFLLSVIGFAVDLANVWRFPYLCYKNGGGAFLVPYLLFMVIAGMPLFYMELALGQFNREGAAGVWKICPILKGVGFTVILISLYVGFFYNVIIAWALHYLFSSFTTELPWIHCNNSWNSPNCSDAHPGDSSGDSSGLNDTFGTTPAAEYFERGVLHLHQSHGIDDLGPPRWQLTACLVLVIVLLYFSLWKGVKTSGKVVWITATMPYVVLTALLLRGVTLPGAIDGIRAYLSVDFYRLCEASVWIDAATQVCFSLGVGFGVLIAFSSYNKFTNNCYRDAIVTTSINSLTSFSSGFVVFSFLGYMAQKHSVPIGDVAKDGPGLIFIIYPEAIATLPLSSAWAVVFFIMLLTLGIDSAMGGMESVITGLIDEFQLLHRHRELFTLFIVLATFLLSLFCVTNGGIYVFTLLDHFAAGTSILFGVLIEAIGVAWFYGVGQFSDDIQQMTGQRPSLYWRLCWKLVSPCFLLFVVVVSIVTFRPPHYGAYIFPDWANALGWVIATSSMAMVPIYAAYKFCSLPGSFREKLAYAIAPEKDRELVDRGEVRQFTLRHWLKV

[16] = molecular target: T5, D(4) dopamine receptor (Homo sapiens) (UniProt P21917); assay: Displacement of [3H]methylspiperone from human dopamine D4 receptor at 1 uM by CEREP assay
T5 sequence (whole entry): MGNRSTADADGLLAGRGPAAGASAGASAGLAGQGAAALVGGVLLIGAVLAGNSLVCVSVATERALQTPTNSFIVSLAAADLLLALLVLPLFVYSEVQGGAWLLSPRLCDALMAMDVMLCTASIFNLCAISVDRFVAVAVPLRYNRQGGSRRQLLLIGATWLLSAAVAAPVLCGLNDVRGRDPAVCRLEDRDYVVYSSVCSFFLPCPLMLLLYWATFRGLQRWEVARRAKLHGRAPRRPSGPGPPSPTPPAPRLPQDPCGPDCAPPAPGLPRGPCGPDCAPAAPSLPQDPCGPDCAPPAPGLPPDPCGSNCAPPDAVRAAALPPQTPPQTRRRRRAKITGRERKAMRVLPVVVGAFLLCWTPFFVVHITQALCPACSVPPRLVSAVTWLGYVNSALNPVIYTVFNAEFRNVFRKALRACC

D(3) dopamine receptor = D(3) dopamine receptor (Homo sapiens, UniProt P35462); assay: Displacement of [3H]7-OH-DPAT from human dopamine D3 receptor at 1 uM by CEREP assay
D(3) dopamine receptor, sequence (P35462 whole entry): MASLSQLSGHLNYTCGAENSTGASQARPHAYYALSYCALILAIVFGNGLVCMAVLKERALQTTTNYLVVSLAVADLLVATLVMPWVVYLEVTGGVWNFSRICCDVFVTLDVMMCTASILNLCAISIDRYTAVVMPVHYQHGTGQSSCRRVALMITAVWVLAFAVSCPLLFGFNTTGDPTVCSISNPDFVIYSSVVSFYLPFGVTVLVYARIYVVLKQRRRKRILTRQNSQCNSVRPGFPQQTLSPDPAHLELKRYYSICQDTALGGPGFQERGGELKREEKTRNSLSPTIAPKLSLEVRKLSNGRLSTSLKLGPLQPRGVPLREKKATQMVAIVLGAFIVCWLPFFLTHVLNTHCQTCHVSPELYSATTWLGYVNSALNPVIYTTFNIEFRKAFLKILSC

[17] = Binding affinity to dopamine receptor
[18] = Binding affinity to 5-HT receptor

| SMILES | ED50 (Rattus norvegicus [4]) | pKi [5] | Ratio Ki(app) (Homo sapiens) | pKi [6] | pKi (D(2) dopamine receptor [7]) | pKi (D(2) dopamine receptor [8]) | Activity (Rattus norvegicus [9]) [%] | Activity (Rattus norvegicus [10]) [%] | Activity (Rattus norvegicus [11]) [%] | other results |
| --- | --- | --- | --- | --- | --- | --- | --- | --- | --- | --- |
| CCCN1CCC(c2n[nH]c3ccccc23)CC1 | 55 µmol/kg | 5.13 | 5.7 | 5.25 | 6.73 | 5.97 |  |  |  | Activity (Rattus norvegicus [1]): 7%; Activity (Rattus norvegicus [2]): 105%; Activity (Rattus norvegicus [3]): 227% |
| CCCN1CCC(N2C(=O)C(=O)c3ccccc32)CC1 | inactive |  | 0.9 | 4.62 | 4.89 | 4.92 | 118 | 95 | 101 | pIC50 [5]: < 3.24 |
| CCCN1CCC(c2ccc3ccccc3c2)CC1 |  | 7.20 | 1.9 | 6.90 | 5.81 | 5.54 | 22 | 70 | 32 | inhibition [12]: 91%; inhibition [13]: 20%; inhibition [14]: 41%; inhibition [15]: 47% |
| CCCN1CCC[C@@H](c2cccc(S(C)(=O)=O)c2)C1 | 63 µmol/kg |  |  |  |  |  | 215 | 100 | 260 |  |
| CCCN1CCC(c2coc3ccccc23)CC1 |  | 7.04 |  | 6.08 | 6.10 | 5.57 | 75 | 84 | 35 | inhibition [14]: 49%; inhibition [15]: 34%; inhibition [16]: 26%; inhibition (D(3) dopamine receptor): 28% |
| CCCN1CC=C(c2c[nH]c3ccc(Cl)cc23)CC1 |  |  |  |  |  |  |  |  |  | Activity [17]: 80 nM; Activity [18]: 260 nM |
| CCCN1CCC(n2cnc3ccccc32)CC1 | inactive |  |  | 6.91 | 4.97 |  | 20 | 98 | 111 | pIC50 [5]: < 3.24; pIC50 (D(2) dopamine receptor [8]): < 3.24 |
| CCCN1CCC(c2c[nH]c3cc(F)ccc23)CC1 | 4.1 µmol/kg | 4.80 | 0.6 | 7.35 | 7.37 | 7.57 |  |  |  | Activity (Rattus norvegicus [1]): 2.8%; Activity (Rattus norvegicus [2]): 93%; Activity (Rattus norvegicus [3]): 299%; inhibition [12]: 100%; inhibition [13]: 91%; inhibition [14]: 14%; inhibition [15]: 1% |
| CCCN1CCC(c2cn(C)c3ccc(F)cc23)CC1 | 3 µmol/kg | 5.16 | 1.7 | 7.24 | 7.72 | 7.49 |  |  |  | Activity (Rattus norvegicus [1]): 9%; Activity (Rattus norvegicus [2]): 87%; Activity (Rattus norvegicus [3]): 275% |
| CCCN1CCC(c2noc3cc(F)ccc23)CC1 | 4 µmol/kg | 5.65 | 5.7 | 4.53 | 7.47 | 6.71 |  |  |  | Activity (Rattus norvegicus [1]): 8.3%; Activity (Rattus norvegicus [2]): 111%; Activity (Rattus norvegicus [3]): 350%; inhibition [14]: 17%; inhibition [15]: 15%; inhibition [16]: 37%; inhibition (D(3) dopamine receptor): 83% |
| CCCN1CCC(n2ccc3ccccc32)CC1 | 126 µmol/kg | 4.13 | 10 | 7.27 | 6.96 | 5.94 | 92 | 87 | 227 |  |
| CCCN1CCC(c2csc3ccccc23)CC1 | 54 µmol/kg | 4.85 | 4.6 | 8.19 | 7.59 | 6.92 | 48 | 79 | 290 |  |
| CCCN1CCC(n2c(=O)n(C)c3cc(Cl)ccc32)CC1 | 47 µmol/kg |  | 0.4 | 5.65 | 5.29 | 5.70 | 27 | 113 | 253 | pIC50 [5]: < 3.24 |
| CCCN1CCC(c2cc3ccccc3s2)CC1 |  | 7.74 | 4 | 6.89 | 6.24 | 5.63 | 37 | 76 | 28 | inhibition [12]: 95%; inhibition [13]: 21%; inhibition [14]: 23%; inhibition [15]: 67% |
| CCCN1CCC(c2cccc3ccccc23)CC1 | 103 µmol/kg | 5.27 | 2.7 | 7.28 | 7.39 | 6.95 | 62 | 76 | 218 |  |
| CCCN1CCC(c2cn(C)c3cc(F)ccc23)CC1 | 33 µmol/kg | 5.39 | 1.7 | 7.35 | 6.80 | 6.56 | 27 | 95 | 264 |  |
| CCCN1CCC(c2cccc(S(C)(=O)=O)c2)CC1 [PRIDOPIDINE] | 81 µmol/kg |  |  |  |  |  |  |  |  |  |
